Values after ≈ are worked out from the molar mass of the structure shown.
Legend:
[1] = target: T1, cytochrome P450 2C9-isoenzyme (Homo sapiens, UniProt P11712); experiment: Inhibition of CYP-2C9 (hydroxylation of diclofenac, human liver microsomes); assay type: in vitro ADME; settings: CYP-2C9, human liver microsomes, diclofenac 10 μM, 37° C.
T1 construct: from tissue; host or cells: human liver microsomes
Experimental: The inhibition of cytochrome P450 2C9-isoenzyme catalyzed hydroxylation of diclofenac by the test compound is assayed at 37° C. with human liver microsomes. All assays are carried out on a robotic system in 96 well plates. The final incubation volume contains TRIS buffer (0.1 M), MgCl2 (5 mM), human liver microsomes (0.1 mg/mL), diclofenac (10 μM) and the test compound at five different concentrations or no compound (high control) in duplicate (e.g., highest concentration 10-50 μM with subsequent serial 1:4 dilutions). Following a short preincubation period, reactions are started with the cofactor (NADPH, 1 mM) and stopped by cooling the incubation down to 8° C. and subsequently by addition of one volume of acetonitrile. An internal standard solution—the stable isotope ^13C6-hydroxydiclofenac—is added after quenching of incubations. Peak area analyte (=metabolite formed) and internal standard is determined by LC-MS/MS. The resulting peak area ratio analyte to internal standard in these incubations is compared to a control activity containing no test compound. Within each of the assay runs, the IC50 of a positive control inhibitor (sulfaphenazole) is determined. Experimental IC50 values are calculated by least square regression according to the following equation: % control activity=(100% control activity/(1+(I/IC50)S))−B with I=inhibitor concentration; S=slope factor; B=background activity (lower plateau of the inhibition curve)
(§1) If the inhibition of the reaction is already >50% at the lowest concentration of the test compound, the IC50 is assigned “<lowest concentration tested” (usually <0.4 μM). If the inhibition of the reaction is still <50% at the highest concentration of the test compound, the IC50 is assigned “>highest concentration tested” (usually >50 μM).

[2] = target: T2, cytochrome P450 2C8-isoenzyme (Homo sapiens, UniProt P10632); experiment: Inhibition of CYP-2C8 (deethylation of amodiaquine, human liver microsomes); assay type: in vitro ADME; settings: CYP-2C8, human liver microsomes, amodiaquine 1 μM, 37° C.
T2 construct: from tissue; host or cells: human liver microsomes
T2 sequence (P10632 1-490): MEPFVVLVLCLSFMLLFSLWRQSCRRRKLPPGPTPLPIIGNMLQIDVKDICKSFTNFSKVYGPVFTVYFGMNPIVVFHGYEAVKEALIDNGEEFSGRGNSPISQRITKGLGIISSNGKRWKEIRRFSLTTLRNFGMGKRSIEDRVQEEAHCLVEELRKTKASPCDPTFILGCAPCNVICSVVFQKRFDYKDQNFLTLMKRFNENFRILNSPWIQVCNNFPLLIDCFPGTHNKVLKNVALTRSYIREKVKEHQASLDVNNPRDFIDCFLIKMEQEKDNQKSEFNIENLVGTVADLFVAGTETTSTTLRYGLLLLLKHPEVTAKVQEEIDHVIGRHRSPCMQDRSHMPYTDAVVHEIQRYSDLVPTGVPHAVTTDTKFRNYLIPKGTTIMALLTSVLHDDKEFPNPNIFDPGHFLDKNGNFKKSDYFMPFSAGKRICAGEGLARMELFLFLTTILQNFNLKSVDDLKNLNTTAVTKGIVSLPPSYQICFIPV
Experimental: The inhibition of cytochrome P450 2C8-isoenzyme catalyzed deethylation of amodiaquine by the test compound is assayed at 37° C. with human liver microsomes. All assays are carried out on a robotic system in 96 well plates. The final incubation volume contains TRIS buffer (0.1 M), MgCl2 (5 mM), human liver microsomes (0.05 mg/mL), amodiaquine (1 μM) and the test compound at five different concentrations or no compound (high control) in duplicate (e.g. highest concentration 10-50 μM with subsequent serial 1:4 dilutions). Following a short preincubation period, reactions are started with the cofactor (NADPH, 1 mM) and stopped by cooling the incubation down to 8° C. and subsequently by addition of one volume of acetonitrile. An internal standard solution—the stable isotope d5-desethylamodiaquine—is added after quenching of incubations. Peak area analyte (=metabolite formed) and internal standard is determined by LC-MS/MS. The resulting peak area ratio analyte to internal standard in these incubations is compared to a control activity containing no test compound. Within each of the assay runs, the IC50 of a positive control inhibitor (Montelukast) is determined. Experimental IC50 values are calculated by least square regression according to the following equation: % control activity=(100% control activity/(1+(I/IC50)S))−B with I=inhibitor concentration; S=slope factor; B=background activity (lower plateau of the inhibition curve)
as §1

[3] = Aqueous solubility in buffer vs acetonitrile/water (1/1), LC-UV; assay type: physicochemical; settings: kinetic from dmso stock, buffer pH 2.2, 24 h shaking, 2.5% DMSO
Experimental: The aqueous solubility of the compounds of the invention is determined by comparing the amount dissolved in buffer to the amount in an acetonitrile/water (1/1) solution. Starting from a 10 mM DMSO stock solution aliquots are diluted with acetonitrile/water (1/1) or buffer, respectively. After 24 h of shaking, the solutions are filtrated and analyzed by LC-UV. The amount dissolved in buffer is compared to the amount in the acetonitrile solution.
Solubility is usually being measured from 0.001 to 0.125 mg/mL at a DMSO concentration of 2.5%. If more than 90% of the compound is dissolved in buffer, the value is marked with “>”.

human GPR40 receptor = human GPR40 receptor (Homo sapiens, UniProt O14842); experiment: IP1 accumulation measurements using the IPOne assay system (1321N1 cells stably expressing human GPR40 receptor); assay type: cell-based; settings: 1321N1 cells expressing human GPR40, 1 h stimulation at 37° C.
Sequence of human GPR40 receptor (O14842 whole entry): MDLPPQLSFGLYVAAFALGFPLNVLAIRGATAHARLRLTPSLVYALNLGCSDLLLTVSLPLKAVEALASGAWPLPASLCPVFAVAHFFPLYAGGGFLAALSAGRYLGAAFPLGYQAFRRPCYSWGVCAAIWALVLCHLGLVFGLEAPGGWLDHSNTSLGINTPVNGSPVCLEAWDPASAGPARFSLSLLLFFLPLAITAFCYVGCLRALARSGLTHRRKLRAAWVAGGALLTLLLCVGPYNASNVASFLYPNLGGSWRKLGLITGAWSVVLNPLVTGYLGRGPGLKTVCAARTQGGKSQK
Experimental: IP1 accumulation measurements using the IPOne assay system—1321N1 cells stably expressing human GPR40 receptor (Euroscreen, Belgium) are seeded 24 h before the assay in white 384-well plates in culture medium containing 10% FCS, 1% Na-Pyruvate and 400 μg/mL G418. IP1 is assayed according to the manufacturer's description (Cisbio Bioassays, France). In brief, the assay is started by substitution of the culture medium by stimulation buffer (Hepes 10 mM, CaCl2 1 mM, MgCl2 0.5 mM, KCl 4.2 mM, NaCl 146 mM, glucose 5.5 mM and LiCl 50 mM, pH 7.4). Cells are stimulated for 1 h at 37° C., 5% CO2 by addition of the compounds that are diluted in stimulation buffer containing LiCl. Assays are stopped by adding HTRF-conjugates (IP1-d2 and Anti-IP1 cryptate Tb) and lysis buffer, provided by the manufacturer. After an incubation time of 1 h at room temperature plates are measured using an EnVision™, Perkin Elmer. The obtained fluorescence ratios at 665/615 […] are then used to calculate the pEC50 values using Assay Explorer 3.3 Software (Accelrys, Inc.) by interpolation using an IP1 reference curve and subsequent sigmoidal curve fitting allowing for a variable hill slope.

T1 sequence (P11712 whole entry): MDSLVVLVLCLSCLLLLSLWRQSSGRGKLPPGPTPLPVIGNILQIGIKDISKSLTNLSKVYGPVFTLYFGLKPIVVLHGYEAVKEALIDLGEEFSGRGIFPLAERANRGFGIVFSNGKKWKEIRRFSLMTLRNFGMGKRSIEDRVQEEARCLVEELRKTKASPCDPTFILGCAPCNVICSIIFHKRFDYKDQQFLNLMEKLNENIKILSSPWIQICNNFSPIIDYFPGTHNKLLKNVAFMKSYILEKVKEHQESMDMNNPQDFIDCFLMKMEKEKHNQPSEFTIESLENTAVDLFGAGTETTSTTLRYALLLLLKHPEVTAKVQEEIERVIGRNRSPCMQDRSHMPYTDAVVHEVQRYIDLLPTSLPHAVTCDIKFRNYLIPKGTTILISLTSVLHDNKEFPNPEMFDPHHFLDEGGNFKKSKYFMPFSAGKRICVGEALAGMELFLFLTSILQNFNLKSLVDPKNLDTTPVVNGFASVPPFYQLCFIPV

Structure (SMILES)	IC50 [1] [µM]	IC50 [2] [µM]	solubility at 24 h [3] [µg/mL]	EC50 (human GPR40 receptor) [µM]
Cc1cc(OCC2CCOC2)cc(C)c1-c1ccc(F)c2c1CC[C@H]2Nc1ccc([C@H]2C[C@@H]2C(=O)O)cn1 (stereo partly shown) [Example 16]	> 50	46	110 (≈ 213 µM)	0.011
Cc1cccc(C)c1-c1ccc(F)c2c1CC[C@H]2Nc1ccc([C@H]2C[C@@H]2C(=O)O)cn1 [Example 17]	36	34	65 (≈ 156 µM)	0.013
Cc1cc(-c2nnnn2CC(C)(C)O)cc(C)c1-c1ccc(F)c2c1CC[C@H]2Nc1ccc([C@H]2C[C@@H]2C(=O)O)cn1 [Example 24]	> 50	> 50	103 (≈ 185 µM)	0.318
Cc1cc(-c2nnn[nH]2)cc(C)c1-c1ccc(F)c2c1CC[C@H]2Nc1ccc([C@H]2C[C@@H]2C(=O)O)cn1 [Example 25]	> 50	4	67 (≈ 138 µM)	0.177
Cc1cc(CO)cc(C)c1-c1ccc(F)c2c1CC[C@H]2Nc1ccc([C@H]2C[C@@H]2C(=O)O)cn1 [Example 28]	> 50	> 50	87 (≈ 195 µM)	0.071
Cc1cc(OCC(C)(C)O)cc(C)c1-c1ccc(F)c2c1CC[C@H]2Nc1ccc([C@H]2C[C@@H]2C(=O)O)cn1 [Example 29]	> 50	> 50	111 (≈ 220 µM)	0.017
Cc1cc(OCc2ccccc2)cc(C)c1-c1ccc(F)c2c1CC[C@H]2Nc1ccc([C@H]2C[C@@H]2C(=O)O)cn1 [Example 32]	24	12	< 1	0.035
Cc1cc(OCC2(C)COC2)cc(C)c1-c1ccc(F)c2c1CC[C@H]2Nc1ccc([C@H]2C[C@@H]2C(=O)O)cn1 [Example 33]	> 50	26	103 (≈ 199 µM)	0.014
Cc1cc(OCC(=O)O)cc(C)c1-c1ccc(F)c2c1CC[C@H]2Nc1ccc([C@H]2C[C@@H]2C(=O)O)cn1 [Example 34]	> 50	> 50	73 (≈ 149 µM)	4.13
Cc1cc(-c2ccc(=O)n(C)c2)cc(C)c1-c1ccc(F)c2c1CC[C@H]2Nc1ccc([C@H]2C[C@@H]2C(=O)O)cn1 [Example 37]	> 50	17	113 (≈ 216 µM)	0.011
N#Cc1cccc(C#N)c1-c1ccc(F)c2c1CC[C@H]2Nc1ccc([C@H]2C[C@@H]2C(=O)O)cn1 [Example 44]	> 50	> 50	> 158	4.13
Cc1cc(-c2cc(=O)n(C)cn2)cc(C)c1-c1ccc(F)c2c1CC[C@H]2Nc1ccc([C@H]2C[C@@H]2C(=O)O)cn1 [Example 45]	> 50	24	86 (≈ 164 µM)	0.005
COc1cc(OC)c(-c2ccc(F)c3c2CC[C@H]3Nc2ccc([C@H]3C[C@@H]3C(=O)O)cn2)c(OC)c1 [Example 48]	> 50	> 50	> 107	0.427
Cc1ccc(Cl)c(-c2ccc(F)c3c2CC[C@H]3Nc2ccc([C@H]3C[C@@H]3C(=O)O)cn2)c1Cl [Example 51]	17	12	56 (≈ 119 µM)	0.007
COc1cc(OC)c(Cl)c(-c2ccc(F)c3c2CC[C@H]3Nc2ccc([C@H]3C[C@@H]3C(=O)O)cn2)c1Cl [Example 53]	14	11	76 (≈ 147 µM)	0.013
O=C(O)[C@H]1C[C@@H]1c1ccc(N[C@@H]2CCc3c(-c4c(F)cccc4F)ccc(F)c32)nc1 [Example 55]	> 50	> 50	73 (≈ 172 µM)	0.208
COc1cc(OC)c(F)c(-c2ccc(F)c3c2CC[C@H]3Nc2ccc([C@H]3C[C@@H]3C(=O)O)cn2)c1F [Example 57]	48	19	99 (≈ 204 µM)	0.107
O=C(O)[C@H]1C[C@@H]1c1ccc(N[C@@H]2CCc3c(-c4c(F)cc(OC5CC5)cc4F)ccc(F)c32)nc1 [Example 60]	9	25	68 (≈ 142 µM)	0.061
Cc1cc(OCC2CCOCC2)cc(C)c1-c1ccc(F)c2c1CC[C@H]2Nc1ccc([C@H]2C[C@@H]2C(=O)O)cn1 [Example 61]	33	15	90 (≈ 170 µM)	0.005
Cc1cc(-c2ccn(C)c(=O)n2)cc(C)c1-c1ccc(F)c2c1CC[C@H]2Nc1ccc([C@H]2C[C@@H]2C(=O)O)cn1 [Example 71]	> 50	18	121 (≈ 231 µM)	0.006
Cc1cc(OCC2(O)CCSCC2)cc(C)c1-c1ccc(F)c2c1CC[C@H]2Nc1ccc([C@H]2C[C@@H]2C(=O)O)cn1 [Example 73]	45	20	89 (≈ 158 µM)	0.017
COc1c(F)c(F)c(-c2ccc(F)c3c2CC[C@H]3Nc2ccc([C@H]3C[C@@H]3C(=O)O)cn2)c(F)c1F [Example 76]	40	30	104 (≈ 212 µM)	0.003

— patent US9617251B2, “Indanylaminopyridylcyclopropanecarboxylic acids, pharmaceutical compositions and uses thereof” (BOEHRINGER INGELHEIM INTERNATIONAL GMBH, priority 2015, dated 2017)
